Source: PubChem BioAssay (NCI)
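Grown in 96-well plates, cells were treated for 48 hours with each compound at five concentrations. Insufficient inhibition: endpoint recorded as highest concentration tested. Abbreviation: GI50, concentration required for 50% inhibition of growth. Definition used: TGI = concentration required for complete inhibition of growth.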

What was measured:
Test in all cases: inhibition of tumour cell growth, NCI panel, 48 h
RPMI-8226 leukemia = system: RPMI-8226 leukemia
ACHN renal = system: ACHN renal
SF-268 CNS = system: SF-268 CNS
SK-OV-3 ovarian = system: SK-OV-3 ovarian
CAKI-1 renal = system: CAKI-1 renal
HOP-62 NSCLC = system: HOP-62 NSCLC
SK-MEL-2 melanoma = system: SK-MEL-2 melanoma
SN12C renal = system: SN12C renal
DLD-1 colon = system: DLD-1 colon
SNB-78 CNS = system: SNB-78 CNS

Compound | GI50 (RPMI-8226 leukemia) [µM] | TGI (RPMI-8226 leukemia) [µM] | GI50 (ACHN renal) [µM] | TGI (ACHN renal) [µM] | GI50 (SF-268 CNS) [µM] | TGI (SF-268 CNS) [µM] | GI50 (SK-OV-3 ovarian) [µM] | TGI (SK-OV-3 ovarian) [µM] | GI50 (CAKI-1 renal) [µM] | TGI (CAKI-1 renal) [µM] | GI50 (HOP-62 NSCLC) [µM] | TGI (HOP-62 NSCLC) [µM] | GI50 (SK-MEL-2 melanoma) [µM] | TGI (SK-MEL-2 melanoma) [µM] | GI50 (SN12C renal) [µM] | TGI (SN12C renal) [µM] | TGI (DLD-1 colon) [µM] | TGI (SNB-78 CNS) [µM] | GI50 (DLD-1 colon) [µM] | GI50 (SNB-78 CNS) [µM]
Clc1ccccc1[C@@H]1C[C@@H]2Cc3cc(Br)c4ccccc4c3N1O2 | 4.94 | > 100 | 5.62 | > 100 | 5.02 | > 100 | 3.79 | > 100 | 4.18 | > 100 | 5.7 | > 100 | 2.54 | 6.61 | 8.71 | > 100 |  |  |  | 
CCCCCCCCCCCC[N+](C)(C)Cc1ccccc1 | 1.28 | 3.31 | 5.61 | 20.4 | 2.02 | 4.45 | 3.05 | 10.7 | 5.84 | 24.8 | 2.69 | 7.27 | 1.97 | 3.6 | 2.11 | 5.12 |  |  |  | 
CC(=O)NNc1nc(C)c(C(/C=C/c2ccc([N+](=O)[O-])cc2)=N/NC(N)=O)s1 |  | > 100 |  | > 100 |  | > 100 |  | > 100 |  | > 100 |  | > 100 |  | > 100 |  | > 100 |  |  |  | 
Cc1ccc(NC(=O)C(=O)C(C(=O)c2ccc3ccccc3c2)C2OC(=O)c3ccccc32)c(C)c1 (stereo unspecified) |  | 40.4 |  | 60.4 |  | 35.7 |  | 60.4 |  | 32 |  | 22.4 |  | 26.8 |  | 53.4 | 26.5 | 72.6 |  | 
COc1ccc(OC)c(NC(=O)c2cccc(NC3=C(Cl)C(=O)N(Cc4ccccc4)C3=O)c2)c1 | 15.9 | > 79 | > 100 | > 100 | > 69.2 | > 100 | > 100 | > 100 | > 100 | > 100 | > 83.5 | > 100 | > 100 | > 100 | > 58.1 | > 100 |  |  |  | 
COC(NC(N)=O)C(=O)O (stereo unspecified) |  | > 100 |  | > 100 |  | > 100 |  | > 100 |  | > 100 |  | > 100 |  | > 100 |  | > 100 |  |  |  | 
CCOP(=O)(OCC)/C(C#N)=C\c1ccsc1 |  | > 100 |  | > 100 |  | > 100 |  | > 100 |  | > 100 |  | > 100 |  | > 100 |  | > 100 | > 100 | > 100 |  | 
Cc1c(N)nc([C@H](CC(N)=O)NC[C@H](N)C(N)=O)nc1C(=O)N[C@H](C(=O)N[C@H](C)[C@@H](O)CC(=O)N[C@H](C(=O)NC(O[C@@H]1O[C@@H](C)[C@@H](N)[C@@H](O)[C@H]1O)C(O)c1nc(-c2nc(C(=O)NCCCCN)cs2)cs1)[C@@H](C)O)[C@@H](O[C@@H]1O[C@@H](CO)[C@@H](O)[C@H](O)[C@@H]1O[C@H]1O[C@H](CO)[C@@H](O)[C@H](OC(N)=O)[C@@H]1O)c1c[nH]cn1 (stereo partly specified) |  | > 50 |  | > 50 |  | > 50 |  | > 50 |  | > 50 |  | > 50 |  | > 50 |  | > 50 |  |  |  | 
CC(CN1CC(=O)NC(=O)C1)N1CC(=O)NC(=O)C1 (stereo unspecified) |  | > 750 |  | > 750 |  | > 750 |  | > 672 |  | > 750 | 114 | 709 |  | 741 |  | > 750 | > 750 | > 750 |  | 
c1cc(CN2CCCNCCNCCCNCC2)ccc1CN1CCCNCCNCCCNCC1 | > 100 | > 100 | > 100 | > 100 | > 100 | > 100 | > 100 | > 100 | > 100 | > 100 | > 100 | > 100 | > 100 | > 100 | > 100 | > 100 |  |  |  | 
CC(C)=O.O=C([O-])C(F)(F)F.O=C([O-])C(F)(F)F.O=C([O-])C(F)(F)F.O=C([O-])C(F)(F)F.[Rh+2].[Rh+2] | 33.2 | > 100 | 50.5 | > 100 | > 100 | > 100 | > 100 | > 100 |  |  | > 100 | > 100 |  |  | > 100 | > 100 | > 100 | > 100 | > 100 | 49.4
S=c1nc(C(c2ccccc2)c2ccccc2)[nH][nH]1 |  |  |  | > 100 |  | > 100 |  | > 100 |  |  |  | > 100 |  | > 100 |  | > 100 | > 100 |  |  | 
O=C(O)C1CCN(Cc2oc(CO)cc(=O)c2O)C1 (stereo unspecified) |  | > 100 |  | > 100 |  | > 100 |  | > 100 |  | > 100 |  | > 100 |  | > 100 |  | > 100 |  |  |  | 
CC1(C)OC2CC3COC(=O)C3CC2O1 (stereo unspecified) |  | > 100 |  | > 100 |  | > 100 |  | > 100 |  | > 100 |  | > 100 |  | > 100 |  | > 100 | > 100 | > 100 |  | 
CC(C)(CN1CCOCC1)C(=O)/C=C/c1ccc(/C=C/C(=O)C(C)(C)CN2CCOCC2)cc1 |  | 7.63 |  | 4.92 |  |  |  | 39.8 |  | 3.78 |  | 4.79 |  |  |  | 3.57 | 1.19 | 3.07 |  | 
CCn1c(-c2c(Cl)cc(O)cc2Cl)cc2c(Cl)cc(O)cc21 |  | 87.6 |  | 16.9 |  | 16.1 |  | 37.1 |  | 30.5 |  | 31.5 |  | 17.1 |  | > 100 |  |  |  | 
COc1ccc(C(C#N)=C2C=CC(=NO)C=C2)cc1 | 3.2 | 17.9 | 8.63 | 21.1 | 3.81 | 14.2 | 29.6 | 67.5 | 4.88 | 15.1 | 2.47 | 6.5 | 2.59 | 6.18 | 12.5 | 27.6 |  |  |  | 
CCN(CC)CCC(=O)OC1C(C)=CC(C)C(=O)CC(C(C)CC2CCC(O)C(OC)C2)OC(=O)C2CCCCN2C(=O)C(=O)[C@@]2(O)OC(CCC2C)CC(OC)\C(C)=C/C=C/C=C/C(C)CC(C)C(=O)C1OC (stereo partly specified) |  | 43.2 |  | 22.2 |  | 20.5 |  | 19.4 |  | 21.5 |  | 21.1 |  | 18.9 |  | 21.1 |  |  |  | 
NCCOCn1cc(Cc2cccc(OCc3ccccc3)c2)c(=O)[nH]c1=O |  | > 100 |  |  |  |  |  | > 100 |  |  |  |  |  | > 100 |  | > 100 | > 100 | > 100 |  | 
